# Measured values reported in patent publication US10144706B2 (BRISTOL-MYERS SQUIBB COMPANY, priority 2016, dated 2018).
# Where a name gives a salt, the structure may show the parent alone.
# Target: T1, PD-1/PD-L1 interaction (PD-1-Ig / PD-L1-His) (Homo sapiens, UniProt Q9NZQ7)
# T1 construct: hPDL1(18-239)-TVMV-His; TVMV protease site linker (C); made in house; host or cells: HEK293T
# Test: PD-1/PD-L1 Homogenous Time-Resolved Fluorescence (HTRF) binding assay
# Conditions: IC50 range class; PD-L1-His 10 nM, PD-1-Ig 20 nM; read-out: Range or IC50
# How it was run: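 Human PD-L1-His (10 nM final) was pre-incubated with inhibitor for 15 min, then PD-1-Ig (20 nM final) was added for a further 15 min in dPBS with 0.1% BSA and 0.05% Tween-20. Binding was detected by HTRF using Eu-cryptate anti-Ig (1 nM) and APC anti-His (20 nM).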
# T1 sequence (Q9NZQ7 with tags, fused parts or gaps): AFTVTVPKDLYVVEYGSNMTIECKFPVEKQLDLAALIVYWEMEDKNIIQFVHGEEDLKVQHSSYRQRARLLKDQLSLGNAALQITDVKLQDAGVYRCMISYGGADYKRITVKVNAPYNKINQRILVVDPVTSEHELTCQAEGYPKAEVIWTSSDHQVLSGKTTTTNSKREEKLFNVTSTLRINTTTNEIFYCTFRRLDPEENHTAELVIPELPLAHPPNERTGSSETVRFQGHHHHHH
row,Compound,IC50 [nM]
1,"Cc1c(OCCCN2CC[C@@H](O)C2)cccc1-c1cccc(C(=O)NCCCN2CC[C@@H](O)C2)c1C [Example 3009, 3′-(3-((R)-3-hydroxypyrrolidin-1-yl)propoxy)-N-(3-((R)-3-hydroxypyrrolidin-1-yl)propyl)-2,2′-dimethyl-[1,1′-biphenyl]-3-carboxamide]",1000 to 10000
2,"Cc1c(OCCCNCCc2ccncc2)cccc1-c1cccc(OCCCN2CC[C@@H](O)C2)c1C [Example 2035, (R)-1-(3-((2,2′-dimethyl-3′-(3-((2-(pyridin-4-yl)ethyl)amino)propoxy)-[1,1′-biphenyl]-3-yl)oxy)propyl)pyrrolidin-3-ol]",0.04 to 20
3,"Cc1c(COc2cc(OCc3cc(F)cc(F)c3)c(CN[C@@H](CO)C(=O)O)cc2Cl)cccc1-c1cccc(COc2cc(OCc3cc(F)cc(F)c3)c(CN[C@@H](CO)C(=O)O)cc2Cl)c1C [Example 5008, (2S,2′S)-2,2′-((((((2,2′-dimethyl-[1,1′-biphenyl]-3,3′-diyl)bis(methylene))bis(oxy))bis(5-chloro-2-((3,5-difluorobenzyl)oxy)-4,1-phenylene))bis(methylene))bis(azanediyl))bis(3-hydroxypropanoic acid)]",20.1 to 90
4,N#Cc1cncc(COc2cc(OCc3cccc(-c4cccc(COc5cc(OCc6cncc(C#N)c6)c(C(=O)NCCO)cc5Cl)c4Cl)c3Cl)c(Cl)cc2C(=O)NCCO)c1 [Example 80200],90.1 to 1000
5,"Cc1cc(OCCCN2CC[C@@H](O)C2)ccc1-c1ccc(OCCCN2CC[C@@H](O)C2)cc1C [Example 3012, (3R,3′R)-1,1′-(((2,2′-dimethyl-[1,1′-biphenyl]-4,4′-diyl)bis(oxy))bis(propane-3,1-diyl))bis(pyrrolidin-3-ol)]",> 10000
6,CC(=O)c1cc(Cl)c(OCc2cccc(-c3cccc(COc4cc(OCc5cncc(C#N)c5)c(CN[C@@H](C(=O)O)[C@H](C)O)cc4Cl)c3C)c2C)cc1OCc1cncc(C#N)c1 [Example 60090],20.1 to 90
7,"Cc1c(OCCCN2CCN(CC(=O)NC(C)C)CC2)cccc1-c1cccc(OCCCN2CC[C@@H](O)C2)c1C [Example 2109, (R)-2-(4-(3-((3′-(3-(3-hydroxypyrrolidin-1-yl)propoxy)-2,2′-dimethyl-[1,1′-biphenyl]-3-yl)oxy)propyl)piperazin-1-yl)-N-isopropylacetamide]",90.1 to 1000
8,CC(=O)c1cc(Cl)c(OCc2cccc(-c3cccc(COc4cc(OCc5cncc(C#N)c5)c(CN[C@@](C)(CO)C(=O)O)cc4Cl)c3C)c2C)cc1OCc1cncc(C#N)c1 [Example 60070],0.04 to 20
9,"Cc1c(COc2cc(OCc3ccc(-n4cccn4)nc3)c(CNC(CO)CO)cc2Cl)cccc1-c1cccc(COc2cc(OCc3ccc(-n4cccn4)nc3)c(CNC(CO)CO)cc2Cl)c1C [Example 5019, 2,2′-((((((2,2′-dimethyl-[1,1′-biphenyl]-3,3′-diyl)bis(methylene))bis(oxy))bis(2-((6-(1H-pyrazol-1-yl)pyridin-3-yl)methoxy)-5-chloro-4,1-phenylene))bis(methylene))bis(azanediyl))bis(propane-1,3-diol)]",20.1 to 90
10,Cc1c(COc2cc(OCc3cncc(C#N)c3)c(CNC3CCC[C@@H]3C(=O)O)cc2Cl)cccc1-c1cccc(COc2cc(OCc3cncc(C#N)c3)c(CN[C@@H]3CCC[C@@H]3C(=O)O)cc2Cl)c1C (some centres unmarked) [Example 40510],0.04 to 20
11,N#Cc1cncc(COc2cc(OCc3cccc(-c4cccc(COc5cc(OCc6cncc(C#N)c6)c(C(=O)N6CCC(O)CC6)cc5Cl)c4Cl)c3Cl)c(Cl)cc2C(=O)N2CCC(O)CC2)c1 [Example 80060],0.04 to 20
12,Cc1c(COc2cc(OCc3cncc(C#N)c3)c(CO)cc2Cl)cccc1-c1cccc(COc2cc(OCc3cncc(C#N)c3)c(CN[C@@H](C(=O)O)[C@H](C)O)cc2Cl)c1C [Example 50180],0.04 to 20
13,Cc1c(COc2cc(OCc3cncc(C#N)c3)c(CN[C@](C)(CO)C(=O)O)cc2Cl)cccc1-c1cccc(COc2cc(OCc3cncc(C#N)c3)c(CN[C@](C)(CO)C(=O)O)cc2Cl)c1C [Example 41210],0.04 to 20
14,Cc1c(COc2cc(OCc3cncc(C#N)c3)c(CO)cc2Cl)cccc1-c1cccc(COc2cc(OCc3cncc(C#N)c3)c(CN[C@@H](C(=O)O)[C@H](C)O)cc2Cl)c1C [Example 50250],0.04 to 20
15,N#Cc1cncc(COc2cc(OCc3cccc(-c4cccc(COc5cc(OCc6cncc(C#N)c6)c(C(=O)NCC6(CO)CC6)cc5Cl)c4Cl)c3Cl)c(Cl)cc2C(=O)O)c1 [Example 90040],90.1 to 1000
16,"Cc1c(COc2cc(OCc3cncc(C#N)c3)c(CO)cc2Cl)cccc1-c1cccc(COc2cc(OCc3cncc(C#N)c3)c(CN[C@@](C)(CO)C(=O)O)cc2Cl)c1C [Example 2124, (S)-2-((5-chloro-4-((3′-((2-chloro-5-((5-cyanopyridin-3-yl)methoxy)-4-(hydroxymethyl)phenoxy)methyl)-2,2′-dimethyl-[1,1′-biphenyl]-3-yl)methoxy)-2-((5-cyanopyridin-3-yl)methoxy)benzyl)amino)-3-hydroxy-2-methylpropanoic acid]",0.04 to 20

row,Compound,IC50 [nM]
1,CC(=O)c1cc(Cl)c(OCc2cccc(-c3cccc(COc4cc(OCc5cncc(C#N)c5)c(CN[C@](C)(CO)C(=O)O)cc4Cl)c3C)c2C)cc1OCc1cncc(C#N)c1 [Example 60010],0.04 to 20
2,"Cc1c(COc2cc(OCc3ccc(-n4cccn4)nc3)c(CN(C)C(C)(C)C(=O)O)cc2Cl)cccc1-c1cccc(COc2cc(OCc3ccc(-n4cccn4)nc3)c(CN(C)C(C)(C)C(=O)O)cc2Cl)c1C [Example 5024, 2,2′-((((((2,2′-dimethyl-[1,1′-biphenyl]-3,3′-diyl)bis(methylene))bis(oxy))bis(2-((6-(1H-pyrazol-1-yl)pyridin-3-yl)methoxy)-5-chloro-4,1-phenylene))bis(methylene))bis(methylazanediyl))bis(2-methylpropanoic acid)]",0.04 to 20
3,"Cc1c(OCCCNCC(O)CO)cccc1-c1cccc(OCCCNCC(O)CO)c1C (mixture of isomers) [Example 2083, 3,3′-((((2,2′-dimethyl-[1,1′-biphenyl]-3,3′-diyl)bis(oxy))bis(propane-3,1-diyl))bis(azanediyl))bis(propane-1,2-diol)]",0.04 to 20
4,Cc1c(COc2cc(OCc3cncc(C#N)c3)c(CN[C@H](CC(=O)O)Cc3ccc(I)cc3)cc2Cl)cccc1-c1cccc(COc2cc(OCc3cncc(C#N)c3)c(CN[C@H](CC(=O)O)Cc3ccc(I)cc3)cc2Cl)c1C [Example 40530],90.1 to 1000
5,Cc1c(COc2cc(OCc3cncc(C#N)c3)c(CN[C@H](CCO)C(=O)O)cc2Cl)cccc1-c1cccc(COc2cc(OCc3cncc(C#N)c3)c(CN[C@H](CCO)C(=O)O)cc2Cl)c1C [Example 41090],0.04 to 20
6,"Cc1c(OCCCN2CC[C@@H](O)C2)cccc1-c1cccc(OCCCN2CC(O)C[C@H]2C(=O)O)c1C (stereo in doubt) [Example 2051, (2S,4R)-4-hydroxy-1-(3-((3′-(3-((R)-3-hydroxypyrrolidin-1-yl)propoxy)-2,2′-dimethyl-[1,1′-biphenyl]-3-yl)oxy)propyl)pyrrolidine-2-carboxylic acid]",1000 to 10000
7,Cc1c(COc2cc(OCc3cncc(C#N)c3)c(CNC(Cc3ccccc3)C(N)=O)cc2Cl)cccc1-c1cccc(COc2cc(OCc3cncc(C#N)c3)c(CNC(Cc3ccccc3)C(N)=O)cc2Cl)c1C (centres unmarked) [Example 40590],90.1 to 1000
8,Cc1c(OCCCN[C@H](CO)[C@H](O)c2ccccc2)cccc1-c1cccc(OCCCN[C@H](CO)[C@H](O)c2ccccc2)c1C [Example 2097],90.1 to 1000
9,"Cc1c(OCCCN2CC[C@@H](O)C2)cccc1-c1cccc(OCCCN2CCC(O)(c3ccccc3)C2)c1C (stereo partly drawn) [Example 3028, 1-(3-((3′-(3-((R)-3-hydroxypyrrolidin-1-yl)propoxy)-2,2′-dimethyl-[1,1′-biphenyl]-3-yl)oxy)propyl)-3-phenylpyrrolidin-3-ol, 2 TFA]",20.1 to 90
10,"COc1cc(OCc2cccc(-c3cccc(COc4cc(OC)c(CNCc5cncs5)cc4Cl)c3C)c2C)c(Cl)cc1CNCc1cncs1 [Example 5034, 1,1′-((((2,2′-dimethyl-[1,1′-biphenyl]-3,3′-diyl)bis(methylene))bis(oxy))bis(5-chloro-2-methoxy-4,1-phenylene))bis(N-(thiazol-5-ylmethyl)methanamine)]",20.1 to 90
11,"Cc1c(OCCCN(C)CCN(C)C)cccc1-c1cccc(OCCCN2CC[C@@H](O)C2)c1C [Example 2032, (R)-1-(3-((3′-(3-((2-(dimethylamino)ethyl)(methyl)amino)propoxy)-2,2′-dimethyl-[1,1′-biphenyl]-3-yl)oxy)propyl)pyrrolidin-3-ol]",20.1 to 90
12,COC(=O)CC(O)CNCc1cc(Cl)c(OCc2cccc(-c3cccc(COc4cc(OCc5cncc(C#N)c5)c(CNCC(O)CC(=O)OC)cc4Cl)c3C)c2C)cc1OCc1cncc(C#N)c1 (centres unmarked) [Example 40710],0.04 to 20
13,COC(=O)CC(O)CNCc1cc(Cl)c(OCc2cccc(-c3cccc(COc4cc(OCc5cncc(C#N)c5)c(CNC/C=C\C(=O)O)cc4Cl)c3C)c2C)cc1OCc1cncc(C#N)c1 (centres unmarked) [Example 40720],20.1 to 90
14,Cc1c(COc2cc(OCc3cncc(C#N)c3)c(C(=O)N3CCC(=O)CC3)cc2Cl)cccc1-c1cccc(COc2cc(OCc3cncc(C#N)c3)c(C(=O)N3CCC(=O)CC3)cc2Cl)c1C [Example 80230],20.1 to 90
15,"Cc1c(OCCCN2CC[C@@H](O)C2)cccc1-c1cccc(OCCCN2CC[C@@H](F)C2)c1C [Example 3035, (R)-1-(3-((3′-(3-((R)-3-fluoropyrrolidin-1-yl)propoxy)-2,2′-dimethyl-[1,1′-biphenyl]-3-yl)oxy)propyl)pyrrolidin-3-ol]",0.04 to 20

# Same assay, conditions: numeric IC50; PD-L1-His 10 nM, PD-1-Ig 20 nM; read-out: Range or IC50
row,Compound,IC50 [nM]
1,"Cc1c(OCCCNCCc2ccncc2)cccc1-c1cccc(OCCCN[C@@H]2C[C@H](CO)[C@@H](O)[C@H]2O)c1C [Example 2089, (1R,2S,3R,5R)-3-((3-((2,2′-dimethyl-3′-(3-((2-(pyridin-4-yl)ethyl)amino)propoxy)-[1,1′-biphenyl]-3-yl)oxy)propyl)amino)-5-(hydroxymethyl)cyclopentane-1,2-diol]",7.1
